Experiments:
[1] = test system: HCT116-cell-bearing Balb-c/nude mice; test: Histopathological analysis (H&E) of tumors and organs; assay type: in vivo; conditions: Day 16; control: livers, lungs, and spleens
Description: The tumors and livers harvested from mice were preserved in 4% formalin overnight and the tumor and livers were embedded in paraffin to form paraffin tissue blocks. Afterwards, the tissues were sliced into 5-μm thick sections using a microtome (Leica RM 2145, Leica, Wetzlar, Germany). These sections were stained with H & E. The histopathological analysis was performed using an optical microscope (Optiphot-2, Nikon, Tokyo, Japan).

[2] = Hepatic and renal functional evaluation (serum); assay type: in vivo, mice; conditions: after 16 d
Source text: To investigate the efficacy of tumor inhibition, HCT116-cell-bearing 4-week-old female Balb-c/nude mice whose tumor sizes were up to 500 mm^3 were separated into 3 groups and each group contained 5 mice. […] The tumor size and weight were monitored every 2 to 3 days for 16-days post-injection. At day 16 post-injection, the mice were all euthanized, and their blood was collected. Meanwhile, the tumor and liver of mice were collected. The tumors were photographed after excluding the extreme ones. The blood samples were centrifugated under 3000 RPM for 10 min to obtain the serum samples for hepatic and renal functional evaluations. The hepatic function was assessed by the aspartate aminotransferase (AST) and alanine aminotransferase (ALT) values; the function of the kidneys was evaluated with the index of blood urea nitrogen (BUN) and creatinine.

renal functional index BUN [2]: 32.9 ± 9.3 mg/dL
renal functional index Creatinine [2]: 0.44 ± 0.05 mg/dL
Compound: NC1CCCCC1N.[Cl][Pt][Cl] (centres unmarked) [DACHPt, dichloro(1,2-diaminocyclohexane)platinum(II)]
tumor metastasis in organs (H&E sections) [1]: only observed in lungs
hepatic functional index ALT [2]: 40 ± 3 U/L
hepatic functional index AST [2]: 134 ± 29 U/L

From patent US12642865B2, “Toroidal mixed nanoparticle, method for preparing the same, and method for multifunctional delivery using the same” (China Medical University, priority 2022, dated 2026)
